In PMC4372538, “Advantages of the Phosphatidylserine-Recognizing Peptide PSP1 for Molecular Imaging of Tumor Apoptosis Compared with Annexin V” (PLoS ONE, 2015):
“Also recorded” adds a separate entry of the source. Like-named read-outs stand apart in the source and are kept apart here.

How the values were obtained:
[1] = test system: apoptotic tumor cells in H460 tumor-bearing mice; test: in vivo fluorescence imaging of tumors after apoptosis induction; design: species or system BALB/c nude mice; human H460 tumor; conditions: Cy7.5-labeled
Method: Female nude mice (BALB/c nude; body weight, 20±3 g; n = 5) were housed in a specific pathogen-free environment at 22±2°C and 55±5% relative humidity with light. Tumors were generated by subcutaneously injecting H460 cells (5×10^6 cells) into the right shoulder of 6-wk-old female BALB/c nude mice and allowing them to grow for 3 weeks (size of 0.5 to 0.7 cm). For in vivo analysis of tumor targeting, the tumor-bearing mice were either treated or not treated with a single dose of camptothecin (10 mg/kg) 24 hrs prior to intravenous injection of Cy7.5-labeled PSP1, Cy7.5-annexin V or Cy7.5-labeled control peptide into the tail vein under inhalational anesthesia (1% (w/v) isoflurane in 2 L oxygen).
In vivo fluorescence images were taken at different time intervals after peptide injection (10 min, 1 h, 3 h, 6 h, and 12 h) using an eXplore Optix system (ART Advanced Research Technologies Inc., Montreal, Canada), which has excitation/emission wavelengths of 778 nm/805 nm. The obtained images were processed using eXplore Optix OptiView Software and normalized based on the baseline fluorescence, assessed for each mouse prior to peptide injection.
Fig 4 In vivo imaging of tumors after apoptosis induction. (A) Cy7.5-labelled PSP1peptide, control peptide, or annexin V was systematically injected into the tail vein of tumor-bearing nude mice treated with camptothecin 24 hrs before injection. The same amount of annexin V was also injected into non-camptothecin-treated tumor-bearing mice as a control. The homing of the peptides was examined after the indicated times using an optical imaging system. The white dotted circles indicate the tumors. (B) Histological examination of tumor tissues after homing of PSP1 and annexin V, performed under a fluorescence microscope. Tumor cell apoptosis was observed by TUNEL staining.

PS liposomes = test: SPR binding to PS liposomes
From the text: To compare the kinetics of annexin V and PSP1 peptide binding to PS liposomes, SPR spectroscopy was employed (Reichert Inc, NY, USA). PC and PS liposomes (0.8:0.2 PC:PS) were generated as previously described and were homogenously purified using a liposome mini-extruder with a 100 nm membrane filter, based on the manufacturer’s protocol (Avanti Polar Lipids). […] Briefly, phytosphingosine was immobilized by activating the carboxymethyl groups on dextran-coated chips (Reichert Life Sciences) through a reaction with N-hydroxysuccinimide (Sigma-Aldrich), followed by covalent bonding of the ligands to the chip surface via amide linkages and blocking of excess activated carboxyls with ethanolamine. The purified PS or PC liposomes were captured on the phytosphingosine layer at a flow rate of 5 μl/min in liposome immobilization buffer (10 mM Tris-HCl (pH 8.0), 100 mM NaCl, and 2 mM CaCl2). To use the PC-immobilized surface as a control, the injected PS or PC liposome volume was adjusted to an immobilization level of approximately 4000±200 RU. Different concentrations of the PSP1 peptide (0.313 to 5 μM) and annexin V (3.13 to 100 nM) in running buffer (10 mM Tris-HCl (pH 8.0), 100 mM NaCl, 2 mM CaCl2, and 62.5 μg/ml BSA) were allowed to flow over the surfaces bound to the immobilized liposomes for 3 min at a rate of 30 μl/min. The sensor surface was regenerated after each association and dissociation cycle by injecting 10 mM EDTA for 20 s, followed by 50 mM NaOH for 10 s. The interaction of the ligand and the analyte was analyzed using Scrubber 2 Biologic software (http://www.biologic.com.au/). The binding kinetics was assessed by determining the association (kon), dissociation (koff), and equilibrium (KD) constants.
The in vitro binding affinity of PSP1 and annexin V for PS was further examined using SPR analysis (Fig. 2). […] We immobilized PS liposomes on the surface of an SPR chip, applied a series of different concentrations of PSP1 or annexin V, and examined the binding kinetics. PS-specific binding was determined by subtracting binding responses to a PC liposome-coated surface from those obtained using a PS liposome-coated […] surface.
Fig 2 In vitro SPR analysis of PSP1 and annexin V binding to PS liposomes. (A) The indicated concentrations of PSP1 were injected onto the liposome-immobilized surface. Responses (RU) from the PC liposome-coated surface (reference) were subtracted from those from the PS:PC (2:8) liposome surface to monitor PS-specific binding. The equilibration binding constant (KD) and the association (Kon) and dissociation (Koff) rate constants were estimated using the Scrubber program. (B) Plots of the RU values of annexin V at the indicated concentrations.

apoptotic H460 cells [2] = test: confocal microscopy of binding to apoptotic H460 cells; assay type: cell-based, human
[3] = calcium-dependent; ref [9],[10]; cited from earlier work
From the text: (§1) The exposure of phosphatidylserine (PS) on the outer surface of the plasma membrane bilayer, an early biochemical event in apoptosis, is an attractive target for molecular imaging of dying cells. During chemo- and radiotherapy, subsequent necrosis also results in PS exposure due to disruption of the plasma membrane’s integrity. […] The stability and biodistribution of annexin V derivatives depend ...

[4] = test system: necrotic and nonapoptotic cells with exposed anionic lipids; conditions: under specific physiological or pathological conditions, ref [12], cited from earlier work
From the text: as §1

apoptotic H460 cells [5] = test: FACS binding to apoptotic H460 cells; assay type: cell-based, human; conditions: FITC-labeled, etoposide 50 μM 22 hrs, 2, 10, 20, 50 μg/ml, binding buffer 10 mM Hepes pH 7.4, 150 mM NaCl ± 2 mM CaCl2, 4°C, 1 hr
Method: The human lung cancer cell H460, which was obtained from the American Type Culture Collection (ATCC), was maintained in RPMI-1640 media supplemented with 10% heat-inactivated fetal bovine serum (FBS) and penicillin G/streptomycin at 37°C in a humidified atmosphere of 95% air and 5% CO2.
To induce apoptosis of lung tumor cells (H460), the cells (5×10^6 cell) were grown overnight and then treated with etoposide (50 μM) (Sigma) in serum-free media for 22 hrs, followed by washing with phosphate-buffered saline (PBS) and binding buffer (10 mM Hepes (pH 7.4), 150 mM NaCl, and 2 mM CaCl2).
Control peptide (grey); FITC-NSSSVDK.

[6] = PS:PC (2:8) liposomes, PC response subtracted, Tris-HCl pH 8.0, 2 mM CaCl2, Scrubber, value from picture

Substance: annexin V: endogenous 36-kDa human protein that binds to PS with nanomolar affinity; His-tagged, expressed in Escherichia coli BL-21
- duration of in vivo fluorescence signal in tumor region ([1]; i.v. tail vein, camptothecin 10 mg/kg 24 hrs before, PSP1 10 μg/200 μl (23.16 μM), annexin V 100 μg/200 μl (14.3 μM)): more than 12 hrs
- in vivo tumor homing, non-camptothecin-treated ([1]; i.v., 100 μg/200 μl, non-camptothecin-treated tumor-bearing mice): did not home to the tumor region
- in vivo tumor homing ([1]; i.v., camptothecin-treated H460 tumor-bearing mice, n = 5, imaging 10 min to 12 h, PSP1 10 μg/200 μl, annexin V and control peptide 100 μg/200 μl): weak signals; also recorded: rapidly observed in the tumor region
- Kd (PS liposomes; PS liposomes, PC liposome response subtracted, Tris-HCl pH 8.0, 2 mM CaCl2, read-out: in vitro binding affinity (equilibrium binding constant)): 3.1 nM
- equilibration binding constant (KD) (PS liposomes; PS:PC (2:8) liposomes on phytosphingosine/CMDH chip, PC liposome response subtracted, 10 mM Tris-HCl pH 8.0, 100 mM NaCl, 2 mM CaCl2, 62.5 μg/ml BSA, PSP1 0.313 to 5 μM, annexin V 3.13 to 100 nM, 3 min, 30 μl/min, Scrubber 2, values from picture): 3.15 nM
- association rate constant (Kon) (PS liposomes; [6]): 1.05±0.76×10^6 M^-1S^-1
- dissociation rate constant (Koff) (PS liposomes; [6]): 1.75±1.28×10^-3 S^-1
- apoptotic cell-specific signal (confocal microscopy) (apoptotic H460 cells [2]; FITC-labeled, 20 μg/ml, apoptotic H460 (etoposide 50 μM), 4°C, 1 hr): significantly weaker at the same concentration
- predicted sensitivity of annexin V over PSP1 (apoptotic H460 cells [2]; same concentration, predicted from KD ratio, molar concentration 1/16th and 0.7 FITC groups/molecule, not observed): 150 fold
- PS binding affinity of annexin V [3]: binds to PS with nanomolar affinity in a calcium-dependent manner
- specificity of annexin V for apoptotic cells [4]: not entirely specific for apoptotic cells
- specificity of annexin V for apoptotic cells ([4]; listed as Annexin V): targets necrotic as well as nonapoptotic cells with exposed anionic lipids
- binding to apoptotic H460 cells (FACS) (apoptotic H460 cells [5]): specifically bound to apoptotic H460 cells in a concentration-dependent manner
- binding to apoptotic H460 cells (FACS) (apoptotic H460 cells [5]; listed as Annexin V): appeared to exhibit a greater ability to bind to apoptotic cells
